Results: patent US20080085264A1, “METHODS FOR ENHANCING STEM CELL ENGRAFTMENT DURING TRANSPLANTATION” (priority 2003, published 2008)

Tests used:
BoyJ recipient mice [1] = test: Non-competitive long-term engraftment; format: in vivo, mouse; details: six months post transplant, P<0.05, n=5
Method: Control C57BL/6 (CD45.2^+) or CD26 inhibitor treated C57BL/6 (CD45.2^+) LD donor BM cells were transplanted by tail-vein injection into lethally irradiated (1100 cGy split dose) congenic BoyJ (CD45.1^+) female recipient mice (Haneline L S, et al. Blood. 1999; 94:1-8). Contribution of donor cells was obtained by measuring the number of donor and residual recipient lymphocytes in the peripheral blood. The % donor contribution was calculated by flow cytometric analysis of peripheral blood lymphocytes found in the recipient mouse peripheral blood by measuring CD45.1^+ and CD45.2^+ on cells isolated from the recipient mice 1-6 months post transplant. No less than five mice from each recipient group were analyzed, each one having received a transplant of 5×10^5 pooled LD donor BM cells. Comparisons between treatment groups were made using a two-tailed Student's t-test and data was plotted as mean (M)±standard error of the mean (SEM).

[2] = system: Sca-1+lin- mouse BM cells; test: Chemotaxis assay, CXCL12 induced migration of Sca-1+lin- mouse BM cells; format: cell-based
Method: (§1) Chemotaxis assays were performed using 96-well chemotaxis chambers (NeuroProbe, Gaithersburg, Md.) in accordance with manufacturer's instructions as described previously with minor variations (Christopherson K W, 2nd, et al. J Immunol. 2002; 169:7000-7008; Christopherson K W, 2nd, et al. Blood. 2001; 98:3562-3568; Christopherson K, 2nd, et al. Immunol Lett. 1999; 69:269-273). Briefly 300 μl of RPMI supplemented with 10% FBS and either 0, 100, 200, and 400 ng/ml of mouse CXCL12 chemokine was added to the lower chamber. Ten-thousand sorted cells in 50 μL of media were added to the upper side of the membrane (5.7 mm diameter, 5 μm pore size, polycarbonate membrane.)
(§2) Total cell number in the lower well was obtained by counting using hemocytometer after 4 hours of incubation at 37° C., 5% CO2. Percent migration was calculated by dividing the number of the cells in the lower well by the total cell input multiplied by 100 and subtracting random migration (always less than 5%) to the lower chamber without chemokine presence. Three samples were analyzed separately in triplicate, and then the data averaged for statistical analysis.
Inhibition of endogenous CD26/DPPIV activity was accomplished by pretreatment of cells with 5 mM Diprotin A (Peptides International, Louisville, Ky.) for 15 minutes at 37° C. Diprotin A was allowed to remain in the chemotaxis chamber during the assay. […]

DBA/2 mice = test: G-CSF induced mobilization of HSC/HPC in DBA/2 mice (progenitor cell assays of peripheral blood); format: in vivo, mouse; details: without G-CSF
BoyJ recipient mice [3] = test: Short-term homing of donor Sca-1+lin- cells to recipient bone marrow; format: in vivo, mouse
Method: Control C57BL/6 (CD45.2^+), CD26 inhibitor treated C57BL/6 (CD45.2^+), or CD26^−/− (CD45.2^+) sorted Sca-1^+lin^− or LD donor BM cells were transplanted by tail-vein injection into lethally irradiated (1100 cGy split dose) congenic BoyJ (CD45.1^+) female recipient mice (Haneline L S, et al. Blood. 1999; 94:1-8.) Contribution of Sca^+lin^− donor cells in the context of Sca-1^+lin^− recipient cells was calculated by flow cytometric analysis of cells found in the recipient mouse BM by measuring CD45.1+ and CD45.2^+ on Sca-1^+lin^− LD cells isolated from the recipient mice 24 hours post transplant. […] Comparisons between treatment groups were made using a two-tailed Student's t-test and data was plotted as mean (M)±standard error of the mean (SEM).

[4] = system: Sca-1+c-kit-lin- mBM cells; test: Chemotaxis assay, CXCL12 induced migration of sorted Sca-1+c-kit-lin- mBM cells; format: cell-based, mouse; details: 5 mM Diprotin A
Method: as §1, §2
(§3) The N-terminal truncated mouse CXCL12 (CXCL12 (amino acids 3-68)) was produced by treatment of mouse CXCL12 with DPPIV (Enzyme Systems Products, Livermore, Calif.) for 18 hrs at 37° C. in PBS pH 7.4. […]

[5] = system: Sca-1+c-kit+lin- mBM cells; test: Chemotaxis assay, CXCL12 induced migration of sorted Sca-1+c-kit+lin- mBM cells; format: cell-based, mouse; details: 5 mM Diprotin A
Method: as §1, §2, §3

Substance: Ile-Pro-Ile [Diprotin A]
- donor cell contribution to the formation of peripheral blood leukocytes (BoyJ recipient mice [1]): Increased donor cell contribution
- increase in CXCL12-induced migratory response ([2]; Diprotin A treated Sca-1+lin- BM cells from C57BL/6 mice): two-fold
- effect on CXCL12-induced migration of CD26-/- cells ([2]; Diprotin A treatment of CD26-/- Sca-1+lin- cells compared to untreated CD26-/- cells): no further enhancing effect
- effect on the mobilization of progenitors, inhibitor alone (DBA/2 mice): little or no effect
- increase in homing efficiency (BoyJ recipient mice [3]; 1×10^4 sorted Sca-1+lin- BM C57Bl/6 donor cells treated 15 minutes prior to transplant, vs untreated cells): 9 fold
- short-term homing of donor cells (BoyJ recipient mice [3]; donor LDBM unit treated prior to transplant, P<0.01, n=6): significant increase in short-term homing
- increase in total cell migration ([4]; 100 ng/ml CXCL12): 2.5 fold
- increase in total cell migration ([4]; 200 and 400 ng/ml CXCL12): two-fold
- enhancement in migration ([5]; 100 ng/ml CXCL12): two-fold
- increase in total cell migration ([5]; 200 and 400 ng/ml CXCL12): 1.7 fold
